Results reported in patent US7498161B2 (priority 2003, dated 2009).

How the values were obtained:
[1] = Scheduling experiment: tolerability of the injections (weight, behaviour); assay type: in vivo, athymic nude mice; conditions: 80 mg/kg intra-peritoneal in 10% acetone/peanut oil
Experimental: FIG. 26. Weight (as a measurement of health) in athymic nude mice with A2780 xenograft treated with either HSV 1790, HSV 1716, CB 1954 or a combination of them.
(§1) The treatment groups were administered with a single direct intratumoural injection of the virus and dose determined for that group. The virus was diluted PBS+10% serum. ‘No virus’ control groups received an intratumoural injection of 100 μl of PBS+10% serum. This day was designated as Experimental Day 0.
Some tumours bleed slightly after injection but not to a great degree. […] In all the tumours that bleed slightly, the following day the healing process had begun and within 3-5 days there was little evidence of any puncture wound on any tumour.
(§2) Injections of CB1954 were given to the appropriate groups at days 2, 10 and 15. A dose of 80 mg/kg—the equivalent of approx. 2 mg per mouse—was given. The powdered form of the CB1954 drug (from Sigma) was dissolved in acetone to 10% of the final volume (10 μl per 2 mg). The volume was then made up to 2 mg CB1954 in 100 μl using peanut oil. A syringe was used to mix the drug as peanut oil is thick and viscous. The drug was made up fresh every time.
The appropriate groups were then injected intra-peritoneal with this solution. Control groups which were not receiving drug were injected intra-peritoneal with a 100 μl solution of 10% acetone in peanut oil.

C8161 cells = assay type: cell-based, human; conditions: 50 μM CB1954 alone
A2780 xenograft = assay: Scheduling experiment: virus with or without CB1954, tumour volume in A2780 xenografts; assay type: in vivo, athymic nude mice; conditions: CB1954 alone, no virus, 80 mg/kg intra-peritoneal
Experimental: The inventors proceeded to investigate two doses of the virus in combination with CB1954. The doses selected were 10^5 PFU and 10^6 PFU. Both these doses caused some tumour growth delay in earlier experiments.
The prodrug is given as an 80 mg/kg intra-peritoneal injection, after dissolving the powdered form in 10% acetone and then making up the volume with peanut oil.
Mice were randomized into treatment groups (treatment regimes shown in Table 2) of 3 animals when tumour diameters were approximately 5 mm (tumour volume […]).
as §1, §2
The appropriate groups were then injected intra-peritoneal with this solution. […]

For `NC(=O)c1cc(N2CC2)c([N+](=O)[O-])cc1[N+](=O)[O-]` [CB1954, 5-aziridin-1-yl-2,4-dinitrobenzamide], the behaviour after injection [1] was “slightly lethargic for a short period after the injection”, the body weight [1] was “did not lose any body weight” and the “swelling or irritation at site of injection” value [1] was “No swelling or irritation at the site of injection”. For the same molecule, the effect on cells (C8161 cells) was “no effect” and the “effect on tumour growth” value (A2780 xenograft) was “little effect on tumour growth”.
